These results are taken from patent US9233983B2, “Substituted hetero-bicyclic compounds, compositions and medicinal applications thereof” (ADVINUS THERAPEUTICS LIMITED, priority 2012, dated 2016).

Assay [1] has as its system mouse splenocytes. Description: Inhibition of B Cell Activation as Measured by CD69 Expression in Mouse Splenocytes. To be noted: Splenocyte; C57/BL6 splenocytes, 3 ug/mL goat anti-mouse IgM, 18-20 hrs, CD69+ve cells within CD19; read-out: Mouse spleenocyte IC50. It counts as cell-based. On the procedure:
Inhibition of B Cell Activation as Measured by CD69 Expression in Mouse Splenocytes:
To test the effect of BTK inhibitors in suppressing B-cell receptor (BCR) mediated activation of B cells, we developed a flow cytometry based assay to analyze CD69 expression in B cell population among total splenocyte from the mouse. […] Finally, cell were cultured in RPMI medium with 10% FBS.
Test compounds were diluted half log starting from 2 mM in 100% DMSO (200×). 1×10^5 splenocytes were incubated with 1 uL of diluted test compounds in 200 uL culture medium in a U-bottom 96 well plate (Greiner) at 37° C. with 5% CO2 for 30 mins. Control wells received 1 uL of 100% DMSO without any compound. The cells were stimulated with 3 ug/mL goat anti-mouse IgM (Sigma, cat#M8644) and incubated for 18-20 hrs. […] Then the cells were washed 3 times with PBS with 1% FBS and analyzed by Guava Easycyte Mini flow cytometer system (Millipore). Flow cytometry data were analyzed using Weasel software (WEHI, Melbourne). First B cells were gated using CD19 markers. Then expression of CD69 was analyzed as percentage of CD69+ve cells within CD19. Percent activity for each data point was calculated using following formula: […]
Percentage activity was fit using sigmoid dose response with variable slope logistic equation in Graph-pad Prism 5 software to determine inhibition constant 50 (IC50).

Assay [2] has as its target human Bruton's Tyrosine Kinase (Btk) (Homo sapiens (Human), UniProt Q06187). Description: Recombinant Human Bruton's Tyrosine Kinase (Btk) Inhibition Assay (HTRF KinEASE-TK). It counts as biochemical. To be noted: 20 ng/ml rhBtk, 77 μM ATP (KM), 1 μM TK-Biotin substrate, 90 min; read-out: hBTK IC50.

Sequence of human Bruton's Tyrosine Kinase (Btk) (Q06187 whole entry): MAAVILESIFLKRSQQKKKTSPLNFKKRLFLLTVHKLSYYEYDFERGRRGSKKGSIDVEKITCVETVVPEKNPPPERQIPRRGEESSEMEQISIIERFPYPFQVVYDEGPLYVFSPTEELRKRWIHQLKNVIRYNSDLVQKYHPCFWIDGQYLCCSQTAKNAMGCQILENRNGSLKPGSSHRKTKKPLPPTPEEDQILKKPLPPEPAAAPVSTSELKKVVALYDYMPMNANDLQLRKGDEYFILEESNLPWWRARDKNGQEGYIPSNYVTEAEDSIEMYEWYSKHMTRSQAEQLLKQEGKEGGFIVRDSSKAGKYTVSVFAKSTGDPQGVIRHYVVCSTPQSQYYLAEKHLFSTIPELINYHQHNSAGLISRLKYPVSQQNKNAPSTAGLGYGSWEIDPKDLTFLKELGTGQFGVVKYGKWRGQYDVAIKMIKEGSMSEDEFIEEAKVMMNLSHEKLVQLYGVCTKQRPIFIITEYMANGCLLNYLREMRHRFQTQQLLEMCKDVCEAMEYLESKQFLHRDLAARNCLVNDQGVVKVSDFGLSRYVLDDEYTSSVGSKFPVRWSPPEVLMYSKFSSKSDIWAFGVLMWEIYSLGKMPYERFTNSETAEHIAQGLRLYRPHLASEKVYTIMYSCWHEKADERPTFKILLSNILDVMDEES

As to `CN1CCN(Cc2ccc(-c3cc4c(-c5cccc(N6CCOc7cc(C8CC8)ccc7C6=O)c5CO)ccnc4[nH]3)cn2)CC1` [Example B-20, 8-cyclopropyl-4-[2-(hydroxymethyl)-3-[2-[6-[(4-methylpiperazin-1-yl)methyl]-3-pyridyl]-1H-pyrrolo[2,3-b]pyridin-4-yl]phenyl]-2,3-dihydro-1,4-benzoxazepin-5-one], the IC50 in assay [1] stood at 67 nM; in assay [2], 7 nM.

As for `CN1CCN(Cc2ccc(-c3cc4c(-c5cccc(N6CCOc7cc(C8CC8)cc(F)c7C6=O)c5CO)ccnc4[nH]3)nc2)CC1=O` [Example I-15, 8-cyclopropyl-6-fluoro-4-[2-(hydroxymethyl)-3-[2-[5-[(4-methyl-3-oxo-piperazin-1-yl)methyl]-2-pyridyl]-1H-pyrrolo[2,3-b]pyridin-4-yl]phenyl]-2,3-dihydro-1,4-benzoxazepin-5-one], the values for the IC50 in assay [1] and in assay [2] were 18 nM and 1.5 nM, respectively.

`O=C1c2c(F)cc(C3CC3)cc2OCCN1c1cccc(-c2ccnc3[nH]c(-c4ccc(CN5CCN(CC(F)(F)F)CC5)cn4)cc23)c1CO` [Example I-16, 8-cyclopropyl-6-fluoro-4-[2-(hydroxymethyl)-3-[2-[5-[[4-(2,2,2-trifluoroethyl)piperazin-1-yl]methyl]-2-pyridyl]-1H-pyrrolo[2,3-b]pyridin-4-yl]phenyl]-2,3-dihydro-1,4-benzoxazepin-5-one]: the IC50 in assay [1] was 7.7 nM; in assay [2] it was 1.6 nM.

As to `CC1(O)CN(C(=O)N2CC=C(c3cc4c(-c5cccc(N6CCOc7cc(C8CC8)cc(F)c7C6=O)c5CO)ccnc4[nH]3)CC2)C1` [Example P-15, 8-cyclopropyl-6-fluoro-4-[2-(hydroxymethyl)-3-[2-[1-(3-hydroxy-3-methyl-azetidine-1-carbonyl)-3,6-dihydro-2H-pyridin-4-yl]-1H-pyrrolo[2,3-b]pyridin-4-yl]phenyl]-2,3-dihydro-1,4-benzoxazepin-5-one], the IC50 in assay [1] is 14.7 nM; in assay [2], 1 nM.

In the case of `CN(C)C(=O)N1CC=C(c2cc3c(-c4cccc(N5CCOc6cc(C7CC7)cc(F)c6C5=O)c4CO)ccnc3[nH]2)CC1` [Example P-14, 4-[4-[3-(8-cyclopropyl-6-fluoro-5-oxo-2,3-dihydro-1,4-benzoxazepin-4-yl)-2-(hydroxymethyl)phenyl]-1H-pyrrolo[2,3-b]pyridin-2-yl]-N,N-dimethyl-3,6-dihydro-2H-pyridine-1-carboxamide], the IC50 in assay [1] came to 5.8 nM; in assay [2] it was 1 nM.

For the compound `CN1CCC(n2cc(-c3cc4c(-c5cccc(-n6ccc7cc(C8CC8)ccc7c6=O)c5CO)ncnc4[nH]3)cn2)CC1` [Example D-3, 6-cyclopropyl-2-[2-(hydroxymethyl)-3-[6-[1-(1-methyl-4-piperidyl)pyrazol-4-yl]-7H-pyrrolo[2,3-d]pyrimidin-4-yl]phenyl]isoquinolin-1-one], the IC50 in assay [1] is 43 nM; in assay [2] it was 5 nM.

In the case of `O=C(N1CC=C(c2cc3c(-c4cccc(N5CCOc6cc(C7CC7)cc(F)c6C5=O)c4CO)ccnc3[nH]2)CC1)N1CCOCC1` [Example P-18, 8-cyclopropyl-6-fluoro-4-[2-(hydroxymethyl)-3-[2-[1-(morpholine-4-carbonyl)-3,6-dihydro-2H-pyridin-4-yl]-1H-pyrrolo[2,3-b]pyridin-4-yl]phenyl]-2,3-dihydro-1,4-benzoxazepin-5-one], the IC50 in assay [1] came to 5.4 nM; in assay [2], 1.7 nM.

For `CC1(O)CCN(C(=O)c2ccc(-c3cc4c(-c5cccc(N6CCOc7cc(C8CC8)ccc7C6=O)c5CO)ccnc4[nH]3)nc2)CC1` [Example L-1, 8-cyclopropyl-4-[2-(hydroxymethyl)-3-[2-[5-(4-hydroxy-4-methyl-piperidine-1-carbonyl)-2-pyridyl]-1H-pyrrolo[2,3-b]pyridin-4-yl]phenyl]-2,3-dihydro-1,4-benzoxazepin-5-one], the IC50 in assay [1] came to 67 nM; in assay [2] it was 8 nM.

Regarding `CCN1CC(C(=O)N2CC=C(c3cc4c(-c5cccc(N6CCOc7cc(C8CC8)cc(F)c7C6=O)c5CO)ccnc4[nH]3)CC2)C1` [Example R-5, 8-cyclopropyl-4-[3-[2-[1-(1-ethylazetidine-3-carbonyl)-3,6-dihydro-2H-pyridin-4-yl]-1H-pyrrolo[2,3-b]pyridin-4-yl]-2-(hydroxymethyl)phenyl]-6-fluoro-2,3-dihydro-1,4-benzoxazepin-5-one], the IC50 worked out at 51 nM in assay [1] and 0.75 nM in assay [2].

Take `CN1CCC(n2cc(-c3cc4c(-c5cccc(-n6ncc7cc(C8CC8)ccc7c6=O)c5CO)ncnc4[nH]3)cn2)CC1` [Example D-9]: the IC50 in assay [1] was 33 nM; in assay [2] it was 2 nM.

As to `Cc1c(-c2ncnc3[nH]c(-c4ccc(C(=O)N5CCN(C)CC5)cc4)cc23)cccc1N1CCOc2cc(C3CC3)ccc2C1=O` [Example K-1, 8-cyclopropyl-4-[2-methyl-3-[6-[4-(4-methylpiperazine-1-carbonyl)phenyl]-7H-pyrrolo[2,3-d]pyrimidin-4-yl]phenyl]-2,3-dihydro-1,4-benzoxazepin-5-one], the figures for the IC50 in assay [1] and in assay [2] were 147 nM and 20 nM, respectively.

Regarding `Cc1c(-c2ncnc3[nH]c(-c4ccc(C(=O)N5CCC(O)CC5)cc4)cc23)cccc1-n1ncc2cc(C3CC3)ccc2c1=O` [Example K-20, 6-cyclopropyl-2-[3-[6-[4-(4-hydroxypiperidine-1-carbonyl)phenyl]-7H-pyrrolo[2,3-d]pyrimidin-4-yl]-2-methyl-phenyl]phthalazin-1-one], the IC50 in assay [1] came to 195 nM; in assay [2], 44 nM.

For the compound `CCN1CC=C(c2cc3c(-c4cccc(N5CCOc6cc(C7CC7)cc(F)c6C5=O)c4CO)ccnc3[nH]2)CC1` [Example R-3, 8-cyclopropyl-4-[3-[2-(1-ethyl-3,6-dihydro-2H-pyridin-4-yl)-1H-pyrrolo[2,3-b]pyridin-4-yl]-2-(hydroxymethyl)phenyl]-6-fluoro-2,3-dihydro-1,4-benzoxazepin-5-one], the values for the IC50 in assay [1] and in assay [2] were 85 nM and 22 nM, respectively.

As to `CN1CCN(Cc2ccc(-c3cc4c(-c5cccc(-n6ncc7cc(C8CC8)ccc7c6=O)c5CO)ncnc4[nH]3)cc2)CC1` [Example B-10, 6-cyclopropyl-2-[2-(hydroxymethyl)-3-[6-[4-[(4-methylpiperazin-1-yl)methyl]phenyl]-7H-pyrrolo[2,3-d]pyrimidin-4-yl]phenyl]phthalazin-1-one], the half-maximal inhibitory concentration (IC50) in assay [1] turned out to be 20 nM; in assay [2], 2 nM.

For `O=C(CN1CC=C(c2cc3c(-c4cccc(N5CCOc6cc(C7CC7)cc(F)c6C5=O)c4CO)ccnc3[nH]2)CC1)N1CCC1` [Example P-22, 4-[3-[2-[1-[2-(azetidin-1-yl)-2-oxo-ethyl]-3,6-dihydro-2H-pyridin-4-yl]-1H-pyrrolo[2,3-b]pyridin-4-yl]-2-(hydroxymethyl)phenyl]-8-cyclopropyl-6-fluoro-2,3-dihydro-1,4-benzoxazepin-5-one], the IC50 in assay [1] was determined as 57 nM; in assay [2], 1.2 nM.

As to `CN1CCOC(c2ccc(-c3cc4c(-c5cccc(N6CCOc7cc(C8CC8)ccc7C6=O)c5CO)ccnc4[nH]3)cc2)C1` (centres unmarked) [Example C-5, 8-cyclopropyl-4-[2-(hydroxymethyl)-3-[2-[4-(4-methylmorpholin-2-yl)phenyl]-1H-pyrrolo[2,3-b]pyridin-4-yl]phenyl]-2,3-dihydro-1,4-benzoxazepin-5-one], the IC50 in assay [1] is 125 nM; in assay [2], 3 nM.

With `O=C1c2ccc(C3CC3)cc2OCCN1c1cccc(-c2ccnc3[nH]c(-c4ccc(CN5CCN(S(=O)(=O)C6CC6)CC5)cn4)cc23)c1CO` [Example I-10, 8-cyclopropyl-4-[3-[2-[5-[(4-cyclopropylsulfonylpiperazin-1-yl)methyl]-2-pyridyl]-1H-pyrrolo[2,3-b]pyridin-4-yl]-2-(hydroxymethyl)phenyl]-2,3-dihydro-1,4-benzoxazepin-5-one], the IC50 amounted to 31 nM in assay [1] and 7 nM in assay [2].

Turning to `CN1CCCC(F)(c2ccc(-c3cc4c(-c5cccc(N6CCOc7cc(C8CC8)ccc7C6=O)c5CO)ccnc4[nH]3)cc2)C1` (centres unmarked) [Example J-2, 8-cyclopropyl-4-[3-[2-[4-(3-fluoro-1-methyl-3-piperidyl)phenyl]-1H-pyrrolo[2,3-b]pyridin-4-yl]-2-(hydroxymethyl)phenyl]-2,3-dihydro-1,4-benzoxazepin-5-one], the results for the IC50 in assay [1] and in assay [2] were 77 nM and 3.5 nM, respectively.

Regarding `O=C1c2c(F)cc(C3CC3)cc2OCCN1c1cccc(-c2ccnc3[nH]c(-c4cnn(C5CCN(C6COC6)CC5)c4)cc23)c1CO` [Example D-14, 8-cyclopropyl-6-fluoro-4-[2-(hydroxymethyl)-3-[2-[1-[1-(oxetan-3-yl)-4-piperidyl]pyrazol-4-yl]-1H-pyrrolo[2,3-b]pyridin-4-yl]phenyl]-2,3-dihydro-1,4-benzoxazepin-5-one], the IC50 in assay [1] came to 8 nM; in assay [2] it was 1.7 nM.

The term IC50 denotes the concentration needed to halve the response being measured.
